Laboratory results from publication PMC9133015 (Nature Communications, 2022).
Where “and” joins values, the source holds several entries; their conditions need not be identical. Equal values may be shown once. Read-outs that look alike come from different tables or passages of the source.

Tests used:
Test in all cases: Kinase inhibitor specificity profiling (Reaction Biology Corporation)
Type in all cases: biochemical
Set-up in all cases: % Enzyme Activity (relative to DMSO controls): concentration or dose not given beside the values
[1] = target: T1, panel of 370 protein kinases (Homo sapiens, UniProt O00141); details: 2 h, kinase SGK1; read-out: % Enzyme Activity (relative to DMSO controls)
T1 construct: purchased Reaction Biology Corporation (assay service)

[2] = target: T2, panel of 370 protein kinases (Homo sapiens, UniProt O75460); details: 2 h, kinase ERN1/IRE1; read-out: % Enzyme Activity (relative to DMSO controls)
T2 construct: purchased Reaction Biology Corporation (assay service)

[3] = target: T3, panel of 370 protein kinases (Homo sapiens, UniProt P06493); details: 2 h, read-out: % Enzyme Activity (relative to DMSO controls)
T3 construct: purchased Reaction Biology Corporation (assay service)
T3 sequence (P06493 whole entry): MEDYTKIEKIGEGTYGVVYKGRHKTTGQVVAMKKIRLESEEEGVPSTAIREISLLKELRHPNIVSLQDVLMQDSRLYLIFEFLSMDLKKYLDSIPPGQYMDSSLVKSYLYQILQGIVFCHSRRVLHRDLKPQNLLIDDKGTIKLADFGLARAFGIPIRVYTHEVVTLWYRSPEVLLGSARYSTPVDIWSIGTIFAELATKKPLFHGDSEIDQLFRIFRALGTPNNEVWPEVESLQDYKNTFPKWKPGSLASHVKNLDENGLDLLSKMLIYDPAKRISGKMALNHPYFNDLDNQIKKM

[4] = target: T4, panel of 370 protein kinases (Homo sapiens, UniProt P22612); details: 2 h, kinase PKAcg; read-out: % Enzyme Activity (relative to DMSO controls)
T4 construct: purchased Reaction Biology Corporation (assay service)

[5] = target: T5, panel of 370 protein kinases (Homo sapiens, UniProt P34947); details: 2 h, kinase GRK5; read-out: % Enzyme Activity (relative to DMSO controls)
T5 construct: purchased Reaction Biology Corporation (assay service)

[6] = target: T6, panel of 370 protein kinases (Homo sapiens, UniProt P36507); details: 2 h, kinase MEK2; read-out: % Enzyme Activity (relative to DMSO controls)
T6 construct: purchased Reaction Biology Corporation (assay service)

[7] = target: T7, panel of 370 protein kinases (Homo sapiens, UniProt P41240); details: kinase CSK
T7 construct: purchased Reaction Biology Corporation (assay service)
T7 sequence (P41240 whole entry): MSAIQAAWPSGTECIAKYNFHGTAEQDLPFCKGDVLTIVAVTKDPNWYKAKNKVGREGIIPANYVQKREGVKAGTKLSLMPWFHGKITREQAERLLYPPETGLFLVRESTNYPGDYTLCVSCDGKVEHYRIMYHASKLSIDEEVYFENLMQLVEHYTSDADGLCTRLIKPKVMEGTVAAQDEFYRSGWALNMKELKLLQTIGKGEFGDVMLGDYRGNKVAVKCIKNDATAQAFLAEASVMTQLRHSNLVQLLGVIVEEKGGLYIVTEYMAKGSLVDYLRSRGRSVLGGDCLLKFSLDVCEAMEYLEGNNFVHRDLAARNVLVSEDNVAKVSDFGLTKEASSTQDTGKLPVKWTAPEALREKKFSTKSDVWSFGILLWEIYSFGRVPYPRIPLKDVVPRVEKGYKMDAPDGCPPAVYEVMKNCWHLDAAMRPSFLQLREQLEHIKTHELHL

[8] = target: T8, panel of 370 protein kinases (Homo sapiens, UniProt P49840); details: 2 h, kinase GSK3a; read-out: % Enzyme Activity (relative to DMSO controls)
T8 construct: purchased Reaction Biology Corporation (assay service)

[9] = target: T9, panel of 370 protein kinases (Homo sapiens, UniProt Q00534); details: 2 h, read-out: % Enzyme Activity (relative to DMSO controls)
T9 construct: purchased Reaction Biology Corporation (assay service)
T9 sequence (Q00534 whole entry): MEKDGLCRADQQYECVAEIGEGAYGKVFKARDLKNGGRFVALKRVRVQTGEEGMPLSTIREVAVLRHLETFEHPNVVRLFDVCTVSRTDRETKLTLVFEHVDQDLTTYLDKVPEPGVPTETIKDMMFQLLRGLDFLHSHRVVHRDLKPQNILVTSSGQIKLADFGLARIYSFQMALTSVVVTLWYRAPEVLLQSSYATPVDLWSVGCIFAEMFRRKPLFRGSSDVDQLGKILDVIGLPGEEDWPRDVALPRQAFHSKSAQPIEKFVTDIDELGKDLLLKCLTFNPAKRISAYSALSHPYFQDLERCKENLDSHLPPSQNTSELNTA

[10] = target: T10, panel of 370 protein kinases (Homo sapiens, UniProt Q04912); details: 2 h, kinase RON/MST1R; read-out: % Enzyme Activity (relative to DMSO controls)
T10 construct: purchased Reaction Biology Corporation (assay service)
T10 sequence (Q04912 25-1400): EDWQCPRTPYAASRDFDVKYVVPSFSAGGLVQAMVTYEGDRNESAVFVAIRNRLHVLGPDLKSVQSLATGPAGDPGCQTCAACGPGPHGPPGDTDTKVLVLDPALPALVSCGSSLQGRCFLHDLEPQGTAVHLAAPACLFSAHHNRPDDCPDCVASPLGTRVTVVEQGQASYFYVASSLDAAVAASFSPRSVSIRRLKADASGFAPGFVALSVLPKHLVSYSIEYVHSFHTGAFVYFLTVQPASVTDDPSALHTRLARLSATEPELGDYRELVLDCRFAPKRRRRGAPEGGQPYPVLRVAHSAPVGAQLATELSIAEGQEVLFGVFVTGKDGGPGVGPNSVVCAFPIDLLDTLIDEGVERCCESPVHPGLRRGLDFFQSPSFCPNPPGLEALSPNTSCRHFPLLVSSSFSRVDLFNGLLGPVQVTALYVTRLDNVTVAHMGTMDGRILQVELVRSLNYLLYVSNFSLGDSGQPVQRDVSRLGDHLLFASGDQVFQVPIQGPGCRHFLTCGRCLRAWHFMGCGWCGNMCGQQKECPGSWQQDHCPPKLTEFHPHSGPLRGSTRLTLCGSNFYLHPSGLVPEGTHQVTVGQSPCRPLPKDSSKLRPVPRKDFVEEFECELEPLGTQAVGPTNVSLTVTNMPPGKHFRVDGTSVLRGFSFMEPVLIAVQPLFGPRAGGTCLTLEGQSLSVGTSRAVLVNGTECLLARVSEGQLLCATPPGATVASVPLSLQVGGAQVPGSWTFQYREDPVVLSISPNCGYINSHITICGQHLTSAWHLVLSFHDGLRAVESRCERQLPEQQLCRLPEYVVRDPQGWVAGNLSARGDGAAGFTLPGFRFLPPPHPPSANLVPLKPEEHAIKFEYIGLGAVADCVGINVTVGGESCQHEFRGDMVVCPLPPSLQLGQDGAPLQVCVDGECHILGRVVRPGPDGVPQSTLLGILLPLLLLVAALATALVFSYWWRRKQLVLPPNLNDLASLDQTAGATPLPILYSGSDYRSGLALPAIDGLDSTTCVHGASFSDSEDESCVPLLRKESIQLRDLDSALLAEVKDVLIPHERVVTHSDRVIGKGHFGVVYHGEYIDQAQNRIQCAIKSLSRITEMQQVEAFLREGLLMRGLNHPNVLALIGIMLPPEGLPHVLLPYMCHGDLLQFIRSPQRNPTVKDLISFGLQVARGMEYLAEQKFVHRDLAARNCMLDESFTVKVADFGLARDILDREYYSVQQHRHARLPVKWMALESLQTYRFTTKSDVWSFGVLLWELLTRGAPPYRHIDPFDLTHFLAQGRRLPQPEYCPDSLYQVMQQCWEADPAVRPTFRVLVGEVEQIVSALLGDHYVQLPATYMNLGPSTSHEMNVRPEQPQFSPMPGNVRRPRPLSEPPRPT

[11] = target: T11, panel of 370 protein kinases (Homo sapiens, UniProt Q07002); details: 2 h, kinase CDK18/cyclin Y (PCTK3); read-out: % Enzyme Activity (relative to DMSO controls)
T11 construct: purchased Reaction Biology Corporation (assay service)
T11 sequence (Q07002 whole entry): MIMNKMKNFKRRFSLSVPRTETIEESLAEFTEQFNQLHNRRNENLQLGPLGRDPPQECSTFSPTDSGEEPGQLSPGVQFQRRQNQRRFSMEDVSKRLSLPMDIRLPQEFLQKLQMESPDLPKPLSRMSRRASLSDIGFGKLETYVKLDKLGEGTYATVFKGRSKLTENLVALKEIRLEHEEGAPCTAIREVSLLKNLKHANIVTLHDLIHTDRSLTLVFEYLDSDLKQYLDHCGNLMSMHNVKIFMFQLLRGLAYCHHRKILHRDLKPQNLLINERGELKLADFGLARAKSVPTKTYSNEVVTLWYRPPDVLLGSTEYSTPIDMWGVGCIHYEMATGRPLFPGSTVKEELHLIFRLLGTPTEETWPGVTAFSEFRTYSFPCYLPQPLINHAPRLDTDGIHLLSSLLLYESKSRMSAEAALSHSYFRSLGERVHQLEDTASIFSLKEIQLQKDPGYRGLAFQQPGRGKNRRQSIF

[12] = target: T12, panel of 370 protein kinases (Homo sapiens, UniProt Q16566); details: 2 h, kinase CAMK4; read-out: % Enzyme Activity (relative to DMSO controls)
T12 construct: purchased Reaction Biology Corporation (assay service)

[13] = target: T13, panel of 370 protein kinases (Homo sapiens, UniProt Q8N568); details: 2 h, kinase DCAMKL2; read-out: % Enzyme Activity (relative to DMSO controls)
T13 construct: purchased Reaction Biology Corporation (assay service)

[14] = target: T14, panel of 370 protein kinases (Homo sapiens, UniProt Q8NE63); details: 2 h, kinase HIPK4; read-out: % Enzyme Activity (relative to DMSO controls)
T14 construct: purchased Reaction Biology Corporation (assay service)

[15] = target: T15, panel of 370 protein kinases (Homo sapiens, UniProt Q96BR1); details: 2 h, kinase SGK3/SGKL; read-out: % Enzyme Activity (relative to DMSO controls)
T15 construct: purchased Reaction Biology Corporation (assay service)
T15 sequence (Q96BR1 whole entry): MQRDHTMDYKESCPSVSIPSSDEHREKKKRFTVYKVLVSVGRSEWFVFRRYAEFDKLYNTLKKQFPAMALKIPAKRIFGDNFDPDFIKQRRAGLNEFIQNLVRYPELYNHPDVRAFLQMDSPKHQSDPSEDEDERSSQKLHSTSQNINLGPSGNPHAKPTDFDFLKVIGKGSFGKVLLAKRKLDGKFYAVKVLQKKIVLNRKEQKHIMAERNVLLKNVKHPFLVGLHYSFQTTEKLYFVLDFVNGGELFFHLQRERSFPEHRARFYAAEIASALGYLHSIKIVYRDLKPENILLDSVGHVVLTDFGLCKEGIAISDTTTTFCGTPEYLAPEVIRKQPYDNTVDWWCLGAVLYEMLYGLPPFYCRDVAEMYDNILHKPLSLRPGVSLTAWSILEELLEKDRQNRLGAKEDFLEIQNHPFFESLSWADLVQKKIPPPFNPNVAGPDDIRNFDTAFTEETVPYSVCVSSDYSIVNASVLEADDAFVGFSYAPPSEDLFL

[16] = target: T16, panel of 370 protein kinases (Homo sapiens, UniProt Q96SB4); details: 2 h, kinase SRPK1; read-out: % Enzyme Activity (relative to DMSO controls)
T16 construct: purchased Reaction Biology Corporation (assay service)
T16 sequence (Q96SB4 whole entry): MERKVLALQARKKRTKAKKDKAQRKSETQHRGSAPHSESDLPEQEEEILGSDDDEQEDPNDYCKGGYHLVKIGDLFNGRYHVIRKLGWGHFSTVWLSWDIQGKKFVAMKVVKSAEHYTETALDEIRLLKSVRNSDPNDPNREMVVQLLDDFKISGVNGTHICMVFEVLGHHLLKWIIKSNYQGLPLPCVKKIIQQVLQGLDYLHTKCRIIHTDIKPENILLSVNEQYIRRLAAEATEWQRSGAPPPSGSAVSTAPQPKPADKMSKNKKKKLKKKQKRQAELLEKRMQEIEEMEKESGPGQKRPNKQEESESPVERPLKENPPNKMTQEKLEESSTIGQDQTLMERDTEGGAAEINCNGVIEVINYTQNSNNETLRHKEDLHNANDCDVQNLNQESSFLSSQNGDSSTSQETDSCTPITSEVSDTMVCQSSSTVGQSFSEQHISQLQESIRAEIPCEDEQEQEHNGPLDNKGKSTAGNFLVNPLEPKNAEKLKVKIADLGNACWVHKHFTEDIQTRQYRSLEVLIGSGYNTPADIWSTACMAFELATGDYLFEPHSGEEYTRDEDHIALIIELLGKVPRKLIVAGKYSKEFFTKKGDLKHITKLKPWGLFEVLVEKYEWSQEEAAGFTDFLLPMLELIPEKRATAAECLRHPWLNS

[17] = target: T17, panel of 370 protein kinases (Homo sapiens, UniProt Q9NWZ3); details: kinase IRAK4
T17 construct: purchased Reaction Biology Corporation (assay service)
T17 sequence (Q9NWZ3 whole entry): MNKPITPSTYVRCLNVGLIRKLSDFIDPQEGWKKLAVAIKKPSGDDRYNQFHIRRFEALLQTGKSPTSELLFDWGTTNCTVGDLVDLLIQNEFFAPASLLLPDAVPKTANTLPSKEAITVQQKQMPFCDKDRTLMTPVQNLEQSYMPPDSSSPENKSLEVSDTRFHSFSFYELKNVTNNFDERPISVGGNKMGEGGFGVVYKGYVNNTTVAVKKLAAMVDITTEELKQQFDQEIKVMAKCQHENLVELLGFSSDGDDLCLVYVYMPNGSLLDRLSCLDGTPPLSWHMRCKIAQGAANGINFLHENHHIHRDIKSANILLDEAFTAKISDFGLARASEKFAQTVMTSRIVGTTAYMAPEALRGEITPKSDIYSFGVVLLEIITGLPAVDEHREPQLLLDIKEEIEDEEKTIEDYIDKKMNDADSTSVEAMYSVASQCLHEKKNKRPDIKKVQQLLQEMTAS

[18] = target: T18, panel of 370 protein kinases (Homo sapiens, UniProt Q9NY57); details: 2 h, kinase STK32B/YANK2; read-out: % Enzyme Activity (relative to DMSO controls)
T18 construct: purchased Reaction Biology Corporation (assay service)
T18 sequence (Q9NY57 whole entry): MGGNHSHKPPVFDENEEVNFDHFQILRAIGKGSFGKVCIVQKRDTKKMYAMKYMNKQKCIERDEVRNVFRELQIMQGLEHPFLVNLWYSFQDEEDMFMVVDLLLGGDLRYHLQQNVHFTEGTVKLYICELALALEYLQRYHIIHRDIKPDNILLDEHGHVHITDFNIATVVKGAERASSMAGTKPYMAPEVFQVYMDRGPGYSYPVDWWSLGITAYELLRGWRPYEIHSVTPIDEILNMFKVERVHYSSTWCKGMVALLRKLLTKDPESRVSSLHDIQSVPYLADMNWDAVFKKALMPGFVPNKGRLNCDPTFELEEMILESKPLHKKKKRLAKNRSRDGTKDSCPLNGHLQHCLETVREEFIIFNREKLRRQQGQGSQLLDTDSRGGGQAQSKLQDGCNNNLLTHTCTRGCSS

[19] = target: T19, panel of 370 protein kinases (Homo sapiens, UniProt Q9P0L2); details: 2 h, kinase MARK1; read-out: % Enzyme Activity (relative to DMSO controls)
T19 construct: purchased Reaction Biology Corporation (assay service)

[20] = target: T20, panel of 370 protein kinases (Homo sapiens, UniProt Q9P1W9); details: 2 h, kinase PIM2; read-out: % Enzyme Activity (relative to DMSO controls)
T20 construct: purchased Reaction Biology Corporation (assay service)

[21] = target: T21, panel of 370 protein kinases (Homo sapiens, UniProt Q9UBS0); details: 2 h, kinase p70S6Kb/RPS6KB2; read-out: % Enzyme Activity (relative to DMSO controls)
T21 construct: purchased Reaction Biology Corporation (assay service)

## CCN1CCN(C(=O)c2ccc(Nc3ncc(F)c(-c4ccc5nc(N(C)C)sc5c4)n3)nc2)CC1 [YK-2-69]
[1]
  remaining activity at 1 µM: 60.9%
[2]
  remaining activity at 1 µM: 89.3%
[3]; kinase CDK1/cyclin A
  remaining activity at 1 µM: 116%
[3]; kinase CDK1/cyclin B
  remaining activity at 1 µM: 119%
[3]; kinase CDK1/cyclin E
  remaining activity at 1 µM: 103%
[4]
  remaining activity at 1 µM: 96.9%
[5]
  remaining activity at 1 µM: 106%
[6]
  remaining activity at 1 µM: 97.4%
[7]
  % Enzyme Activity (relative to DMSO controls): 102.94% and 101.79%
[8]
  remaining activity at 1 µM: 42.3%
[9]; kinase CDK6/cyclin D1
  remaining activity at 1 µM: 8.21%
[9]; kinase CDK6/cyclin D3
  remaining activity at 1 µM: 71.9%
[10]
  remaining activity at 1 µM: 89.5%
[11]
  remaining activity at 1 µM: 99.1%
[12]
  remaining activity at 1 µM: 101%
[13]
  remaining activity at 1 µM: 108%
[14]
  remaining activity at 1 µM: 56.5%
[15]
  remaining activity at 1 µM: 95.6%
[16]
  remaining activity at 1 µM: 91.8%
[17]
  % Enzyme Activity (relative to DMSO controls): 99.99% and 96.94%
[18]
  remaining activity at 1 µM: 103%
[19]
  remaining activity at 1 µM: 88%
[20]
  remaining activity at 1 µM: 90.4%
[21]
  remaining activity at 1 µM: 99.4%
